Two molecules from patent EP2326714B1, “METHOD FOR THE PRODUCTION OF A FEED ADDITIVE FOR THE OXYGEN-INDEPENDENT, ENZYMATIC DECOMPOSITION OF MYCOTOXINS, FEED ADDITIVE, AND USE THEREOF” (Erber Aktiengesellschaft, priority 2008, dated 2010) can be followed below.

The test system of data set [1] is CCCC[C@@H](C)[C@@H](OC(=O)C[C@@H](CC(=O)O)C(=O)O)[C@H](C[C@@H](C)C[C@H](O)CCCC[C@@H](O)C[C@H](O)[C@H](C)N)OC(=O)C[C@@H](CC(=O)O)C(=O)O. The data set is described as follows: Enzyme kinetics of fumonisin carboxylesterase (Michaelis-Menten, HPLC-MS/MS). Type of data set: biochemical, Sphingopyxis sp. As for the experimental part:
(§1) Das fumD Gen (Sequenz ID-Nr. 8), welches eine Fumonisin-Carboxylesterase codiert, wurde kloniert und in Pichia pastoris unter Verwendung von Standardverfahren exprimiert. Das his-getaggte Enzym wurde rückgewonnen und aus der überstehenden Lösung der Kultur durch Affinitätschromatographie gereinigt. Die Enzymkonzentration wurde bestimmt und die enzymkinetischen Parameter wurden mit sieben unterschiedlichen Substratkonzentrationen im Bereich zwischen 50 µg bis 25 mg FB1 pro Liter und einer Enzymkonzentration von 0,33 ng/ml bestimmt. Die Reaktionen wurden in 20 mM Tris-Cl (pH 8,0) Puffer mit 0,1 mg/ml Rinderserumalbumin gepuffert und bei 30 °C inkubiert. Proben wurden nach 0, 30, 60 120 und 240 Minuten Inkubation genommen und durch HPLC-MS/MS analysiert. Fumonisin B1 (FB1) und hydrolysiertes Fumonisin B1 wurden quantifiziert basierend auf einer Kalibrierung mit den gereinigten Referenzsubstanzen und einem vollständig ^13C markierten, internen FB1 Standard.
(§2) Fig. 2 zeigt die Michaelis-Menten-Kurve für die Transformation von Fumonisin B1 (FB1) durch Fumonisin-Carboxylesterase FumD, welche bei einer Enzymkonzentration von 0,33 ng/ml in Tris-Cl-Puffer (pH 8,0) bestimmt wurde, wobei anfängliche Enzymgeschwindigkeiten gegen die Substratkonzentration aufgetragen wurden. Die Michaelis-Menten-Kurve zeigt einen Abfall bei höheren Substratkonzentrationen, da die Enzymgeschwindigkeit basierend auf dem Produkt, d.h. hydrolysierter FB1-Bildung berechnet wurde. Da hydrolysiertes FB1 aus FB1 in einer zweistufigen Reaktion über partiell hydrolysiertes FB1 mit lediglich einer Tricarballylsäure-Seitenkette, die zurückbehalten wurde, und einer Seitenkette ausgebildet wird, die abgespalten wurde, war die Endproduktbildung bei hohen Substratkonzentrationen verzögert. Die Michaelis-Menten-Konstante KM wurde als 0,90 µmol/l berechnet, was 650 ppb äquivalent ist, und die Umwandlungszahl war 900 pro Sekunde.

Data set [2] addresses T1, Fumonisin-Carboxylesterase FumD, Sequenz ID-Nr. 9 (fumD Gen Sequenz ID-Nr. 8), Sphingopyxis sp. Stamm DSM 16254, his-getaggt, in Pichia pastoris exprimiert (Sphingopyxis macrogoltabida, UniProt D2D3B6).
T1 construct: His tag; made in house; host or cells: Pichia pastoris (secreted, purified from the culture supernatant)
Described as above. Type of data set: biochemical. To be noted: substrate FB1; enzyme 0,33 ng/ml; Tris-Cl pH 8,0; 30 °C. The method, then: as §1, §2

The subject of a further data set is Absetzferkel. Put plainly: Feeding trial with piglets (fumonisin B1 contaminated feed, positive control). It is filed as in vivo, Ferkel (ÖHYB). Conditions: 4 - 5,5 ppm Fumonisin B1 in feed, no enzyme. The text has this:
Der Versuch wurde in einem Versuchsstall mit 12 Buchten für jeweils 10 Tiere durchgeführt. Der Stall war ausgestattet mit Spaltenboden, Schalentränkern und einem computergesteuerten Fütterungssystem. Die Automaten waren entlang der Buchtenwände angeordnet. Das Stallklima wurde täglich automatisch aufgezeichnet und die Temperatur nach den Standardempfehlungen zur Ferkelaufzucht eingestellt.
120 gemischt-geschlechtliche Absetzferkel (Alter: ca. 4 Wochen, durchschnittliches Einstellgewicht 8,21 kg) wurden für diesen Versuch eingesetzt. Jedes Ferkel wurde mit einer Ohrmarke versehen und einzeln gewogen. Die 120 Ferkel wurden auf 12 Buchten zufällig verteilt. Alle Ferkel entstammten dem österreichischen Zuchtprogramm ÖHYB (= (Edelschwein x Landrasse) x Pietrain).
Direkt nach dem Absetzen wurden die Ferkel für 2 Tage mit einem Starterfutter gefüttert, nach dieser Eingewöhnungsphase erfolgte die Umstellung auf das Versuchsfutter. Die Fütterung erfolgte 2-phasig: Absetzphase Tag 1 - 14, Aufzuchtphase Tag 15 - 42. Das Versuchsfutter wurde buchtenindividuell über die Spotmix-Fütterungsanlage gemischt und je nach Anzahl der Ferkel, Gewichtsentwicklung und Futterverzehr zweimal täglich trocken zugeteilt. Wasser stand zur Aufnahme ad libitum zur Verfügung. Die 12 Buchten wurden in vier verschiedene Applikationsgruppen zu je drei Wiederholungen geteilt und erhielten die folgenden Einmischungen ins oben beschriebene Futter: […]

T1 sequence (D2D3B6 whole entry): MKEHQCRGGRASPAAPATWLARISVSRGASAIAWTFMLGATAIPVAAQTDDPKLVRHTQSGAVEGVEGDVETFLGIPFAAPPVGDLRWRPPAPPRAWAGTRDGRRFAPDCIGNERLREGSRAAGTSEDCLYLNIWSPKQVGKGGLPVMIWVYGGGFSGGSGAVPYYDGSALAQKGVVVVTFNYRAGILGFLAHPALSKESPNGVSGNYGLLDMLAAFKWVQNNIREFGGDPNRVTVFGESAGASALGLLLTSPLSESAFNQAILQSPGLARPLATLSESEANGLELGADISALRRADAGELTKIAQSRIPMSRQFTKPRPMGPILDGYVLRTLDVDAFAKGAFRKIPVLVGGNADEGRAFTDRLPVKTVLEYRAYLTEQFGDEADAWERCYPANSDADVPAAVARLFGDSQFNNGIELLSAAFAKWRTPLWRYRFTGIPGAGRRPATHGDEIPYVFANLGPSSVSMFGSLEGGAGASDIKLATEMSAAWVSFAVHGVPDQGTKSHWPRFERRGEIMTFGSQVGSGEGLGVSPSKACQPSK

Regarding “Fumonisin-Carboxylesterase FumD, Sequenz ID-Nr. 9 (fumD Gen Sequenz ID-Nr. 8), Sphingopyxis sp. Stamm DSM 16254, his-getaggt, in Pichia pastoris exprimiert (Sphingopyxis macrogoltabida)”, the Km in data set [1] (other: same KM expressed in ppb, pH 8.0, 30.0 °C) is 650 ppb; in data set [1] (other: substrate FB1, 50 µg to 25 mg per litre, enzyme 0,33 ng/ml, 20 mM Tris-Cl pH 8,0, 0,1 mg/ml BSA, 30 °C, rate based on formation of hydrolysed FB1), 0,90 µmol/l.

Molecule `CCCC[C@@H](C)[C@@H](OC(=O)C[C@@H](CC(=O)O)C(=O)O)[C@H](C[C@@H](C)C[C@H](O)CCCC[C@@H](O)C[C@H](O)[C@H](C)N)OC(=O)C[C@@H](CC(=O)O)C(=O)O` [Fumonisin B1] came in with a Umwandlungszahl in data set [2] of 900 pro Sekunde. This molecule returned an Ausfälle in the data set on Absetzferkel (30 piglets, 42 days) of 1. Further, in the data set on Absetzferkel (30 piglets, 42 days, negative control 26,82), the “Endgewicht (Durchschnitt, kg)” value is recorded as 24,77 kg. Also, the “respiratorische Probleme” value with Absetzferkel (all other groups appeared healthy) is listed as “bei fast der Hälfte der Tiere respiratorische Probleme beobachtet”.
